This test relates to NALM-6 leukemia cells. As to the kind of experiment: Mitochondrial transmembrane potential, JC-1 staining, flow cytometry. It counts as cell-based, human. On the procedure: To measure the changes in mitochondria, NALM-6 cells were incubated with compound 29 at concentrations ranging from 0.1 μM to 1 μM for 24 hr, 48 hr, 72 hr or 96 hr, stained with specific fluorescent dyes and analyzed with flow cytometer. Mitochondrial membrane potential (ΔΨm) was measured using two dyes including a lipophollic cation 5,5′,6,6′-tetrachloro-1,1′,3,3′-tetraethlybenzimidazolylcarbocyanine iodide (JC-1; Molecular probes, Eugene, Oreg.) and a cyanine dye, 1,1′,3,3,3′,3′-hexamethylindodicarbocyanine iodide [DiIC1(5); Molecular probes] as earlier described (22). JC-1 can enter the cells, and selectively mitochondria, and has been used to assess ΔΨm in a variety of studies (23,24). JC-1 is a monomer at 527 nm after being excited at 490 nm; with polarization of ΔΨm, J-aggregates are formed that shift emission to 590 nm (23, 24). This can be detected on a flow cytometer by assessing the green signal (at 527 nm) and green-orange signal (at 590 nm) simultaneously, creating an index of the number of cells polarized and depolarized mitochondria. The treated and control cells were washed and plated in a 6-well plate at 1×10^6 cells in fresh medium. JC-1 was added at a concentration of 10 μg/ml, and cells were incubated for 10 min in the dark at room temp. Cells were then washed twice with ice-cold PBS and immediately analyzed using Becton Dickinson (San Jose, Calif.) Calibur flow cytometer. At least 2×10^3 cells were analyzed to determine the percentage of cells with polarized and depolarized mitochondria. DiIC1(5), a cyanine dye is amphioatheic and cationic that concentrate in energized mitochondria and has been used in a variety of studies to measure the mitochondrial membrane potential (25–27). NALM-6 cells were stained with DiIC1(5) at 40 nM concentration for 30 min in the dark as described for JC-1. The cells were analyzed using Vantage Becton Dickinson cell sorter equipped with HeNe laser with excitation at 635 nm and the fluorescence was collected at 666 nm.
For orientation: Flow cytometry measures light scatter and fluorescence of single cells or particles in a stream.

Like-named read-outs stand apart in the source and are kept apart here.

In the case of “bis(4,7-dimethyl-1,10-phenanthroline)sulfatooxovanadium(IV) [Compound 29]”, for the setting “500 nM, 48 hr (vehicle 98.6%)”, the “fraction of JC-1 red/orange fluorescence-positive cells, 48 hr” value amounted to 56.1%. The “fraction of JC-1 red/orange fluorescence-positive cells, 72 hr” value (500 nM, 72 hr (vehicle 98.6%)) is listed as 8.4%. Also, the EC50 is 4.2 µM (24 hr treatment, read-out: average EC50 for depolarization of mitochondria (JC-1 red/orange fluorescence), 24 hr) and 0.5 µM (48 hr treatment, read-out: average EC50 for depolarization of mitochondria (JC-1 red/orange fluorescence), 48 hr).
